Experimental data published in US9326513B2, “Fungicidal compositions” (Syngenta Participations AG, priority 2011, dated 2016).

Legend:
Format in all cases: in vivo
Conditions in all cases: foliar, compared to untreated control leaf disks, read-out: disease control
[1] = tested on: Puccinia recondita f. sp. tritici; assay: Puccinia recondita f. sp. tritici / wheat / leaf disc preventative (brown rust)
Excerpt: Puccinia recondita f. sp. tritici/Wheat/Leaf Disc Preventative (Brown Rust) Wheat leaf segments cv. Kanzler were placed on agar in multiwell plates (24-well format) and sprayed with the formulated test compound diluted in water. The leaf disks were inoculated with a spore suspension of the fungus 1 day after application.

[2] = tested on: Puccinia recondita f. sp. tritici; assay: Puccinia recondita f. sp. tritici / wheat / leaf disc curative (brown rust)
Description: Puccinia recondita f. sp. tritici/Wheat/Leaf Disc Curative (Brown Rust) Wheat leaf segments cv. Kanzler are placed on agar in multiwell plates (24-well format). The leaf segments are inoculated with a spore suspension of the fungus. Plates were stored in darkness at 19° C. and 75% rh. The formulated test compound diluted in water was applied 1 day after inoculation.

[3] = tested on: Blumeria graminis f. sp. tritici (Erysiphe graminis f. sp. tritici); assay: Blumeria graminis f. sp. tritici / wheat / leaf disc preventative (powdery mildew on wheat)
Description: Blumeria graminis f. sp. tritici (Erysiphe graminis f. sp. tritici)/Wheat/Leaf Disc Preventative (Powdery Mildew on Wheat)
Wheat leaf segments cv. Kanzler were placed on agar in a multiwell plate (24-well format) and sprayed with the formulated test compound diluted in water. The leaf disks were inoculated by shaking powdery mildew infected plants above the test plates 1 day after application. The inoculated leaf disks were incubated at 20° C. and 60% rh under a light regime of 24 h darkness followed by 12 h light/12 h darkness in a climate chamber and the activity of a compound was assessed as percent disease control compared to untreated when an appropriate level of disease damage appears on untreated check leaf segments (6-8 days after application).
The following compounds gave at 200 ppm give at least 50% disease control in this test when compared to untreated control leaf disks under the same conditions, which show extensive disease development: […]

CCN(C)/C=N/c1cc(Br)c(OCCOCOC)nc1C [Q.061]
pest or weed control at 200 ppm [1]: ≥ 50%

CCN(C)/C=N/c1cc(Br)c(OC2CC(C)CCC2C(C)C)nc1C (stereo not shown) [Q.083]
pest or weed control at 200 ppm [1]: ≥ 50%

CCC[Si](CCC)(CCC)c1cc(/N=C/N(C)CC)c(C)nc1OCc1ccccc1C [Q.259]
pest or weed control at 200 ppm [1]: ≥ 50%

CCN(C)/C=N/c1cc(Br)c(O[C@H]2CC[C@H](C(C)C)CC2)nc1C [Q.268]
pest or weed control at 200 ppm [1]: ≥ 50%

CCN(C)/C=N/c1cc(Br)c(OCc2ccc(Cl)cc2Cl)nc1C [Q.096]
pest or weed control at 200 ppm [2]: ≥ 50% | pest or weed control at 200 ppm [1]: ≥ 50%

Cc1nc(OC(C)c2cc(F)cc(F)c2)c(Br)cc1/N=C/N1CC=CC1 (stereo not shown) [Q.194]
pest or weed control at 200 ppm [2]: ≥ 50% | pest or weed control at 200 ppm [1]: ≥ 50%

CCN(C)/C=N/c1cc(Br)c(OC2CCCc3ccccc32)nc1C (stereo not shown) [Q.138]
pest or weed control at 200 ppm [1]: ≥ 50%

CCN(/C=N/c1cc(Br)c(OC(C)c2cc(F)cc(F)c2)nc1C)CC (stereo not shown) [Q.187]
pest or weed control at 200 ppm [3]: ≥ 50% | pest or weed control at 200 ppm [1]: ≥ 50%

CCN(C)/C=N/c1cc(Br)c(OC(C)(C)c2ccccc2)nc1C [Q.279]
pest or weed control at 200 ppm [2]: ≥ 50% | pest or weed control at 200 ppm [1]: ≥ 50%

CCN(C)/C=N/c1cc(C(C)C)c(OC2CCC(C(C)C)CC2)nc1C (stereo not shown) [Q.343]
pest or weed control at 200 ppm [3]: ≥ 50% | pest or weed control at 200 ppm [1]: ≥ 50%

CCN(C)/C=N/c1cc(Br)c(OCc2snc(-c3ccc(F)cc3)c2C#N)nc1C [Q.157]
pest or weed control at 200 ppm [1]: ≥ 50%

C#CC(C)N(C)/C=N/c1cc(Br)c(OC(C)c2cc(F)cc(F)c2)nc1C (stereo not shown) [Q.190]
pest or weed control at 200 ppm [1]: ≥ 50%

CCN(C)/C=N/c1cc(Br)c(OCCCC2CCCCC2)nc1C [Q.017]
pest or weed control at 200 ppm [3]: ≥ 50% | pest or weed control at 200 ppm [1]: ≥ 50%

CCN(C)/C=N/c1cc(Br)c(OCc2cc(-c3ccccc3)ns2)nc1C [Q.107]
pest or weed control at 200 ppm [1]: ≥ 50%

CCN(C)/C=N/c1cc(Br)c(OC(CC(C)C)CC(C)C)nc1C [Q.234]
pest or weed control at 200 ppm [1]: ≥ 50%

CCN(C)/C=N/c1ccc(O[C@H]2CC[C@H](C(C)C)CC2)nc1C [Q.182]
pest or weed control at 200 ppm [2]: ≥ 50% | pest or weed control at 200 ppm [1]: ≥ 50%

CCN(C)/C=N/c1cc(Br)c(OCc2cccc(N)c2)nc1C [Q.328]
pest or weed control at 200 ppm [1]: ≥ 50%

CCN(C)/C=N/c1cc(Br)c(OC(C)c2ccccc2CCc2ccccc2)nc1C (stereo not shown) [Q.314]
pest or weed control at 200 ppm [1]: ≥ 50%

CCN(C)/C=N/c1cc([Si](CC)(CC)CC)c(OCc2ccccc2C)nc1C [Q.258]
pest or weed control at 200 ppm [2]: ≥ 50% | pest or weed control at 200 ppm [1]: ≥ 50%

CCN(C)/C=N/c1cc(Br)c(O)nc1C [Q.379]
pest or weed control at 200 ppm [1]: ≥ 50%

CCN(C)/C=N/c1cc(-c2ccc(F)cc2)c(OC(C)c2cc(F)cc(F)c2)nc1C (stereo not shown) [Q.264]
pest or weed control at 200 ppm [1]: ≥ 50%

CCN(C)/C=N/c1cc(Br)c(OC(C)C[Si](C)(C)C)nc1C (stereo not shown) [Q.272]
pest or weed control at 200 ppm [3]: ≥ 50% | pest or weed control at 200 ppm [1]: ≥ 50%

CN/C=N/c1cc(Br)c(OCCCC(C)C)nc1C [Q.003]
pest or weed control at 200 ppm [1]: ≥ 50%

CCN(C)/C=N/c1ccc(OCc2cc(OC)cc(OC)c2)nc1C [Q.372]
pest or weed control at 200 ppm [2]: ≥ 50% | pest or weed control at 200 ppm [1]: ≥ 50%

CCN(C)/C=N/c1cc(Br)c(OCc2snc(-c3ccccc3)c2C#N)nc1C [Q.210]
pest or weed control at 200 ppm [1]: ≥ 50%

CCN(C)/C=N/c1cc(-c2cccnc2)c(OC(C)c2cc(F)cc(F)c2)nc1C (stereo not shown) [Q.266]
pest or weed control at 200 ppm [1]: ≥ 50%

Cc1nc(OCCCC(C)C)c(Br)cc1/N=C/NC(C)(C)C [Q.009]
pest or weed control at 200 ppm [1]: ≥ 50%

CCC(Oc1ccc(/N=C/N(C)C(C)C)c(C)n1)c1ccccc1 (stereo not shown) [Q.348]
pest or weed control at 200 ppm [2]: ≥ 50% | pest or weed control at 200 ppm [1]: ≥ 50%

CCCC(CCC)Oc1nc(C)c(/N=C/N(C)CC)cc1Br [Q.150]
pest or weed control at 200 ppm [1]: ≥ 50%

CCN(C)/C=N/c1cc(Br)c(OC2CCNCC2)nc1C [Q.159]
pest or weed control at 200 ppm [2]: ≥ 50% | pest or weed control at 200 ppm [1]: ≥ 50%

Cc1nc(OCCCC(C)C)c(Br)cc1/N=C/NC(C)C [Q.008]
pest or weed control at 200 ppm [1]: ≥ 50%
